Results: patent US20210213010A1, “TLR7/8 AGONISTS AND LIPOSOME COMPOSITIONS” (Torque Therapeutics, Inc., priority 2018, published 2021)
“Also recorded” adds a separate entry of the source.

How the values were obtained:
[1] = Remote loading efficiency of small molecules into liposomes (PD-10 size exclusion, HPLC); assay type: physicochemical; settings: for Remote loading efficiency 1 h (%): drug/lipid ratio 0.10, 1 h; for Remote loading efficiency 3 h (%): drug/lipid ratio 0.10, 3 h
Outline: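 A lyophilized small-molecule powder (modified TLR agonist) was combined with liposome formulation at the desired drug/lipid ratio and stirred at elevated temperature. At 1 h and 3 h, 100 μL of mixture plus 900 μL buffer (25 mM HEPES, 10 vol % sucrose, pH 7.4) went onto a PD-10 size exclusion column. Ten 1 mL fractions were collected, and HPLC quantified compound in the liposome fractions as a percentage of the amount applied.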

whole human blood [2] = test: IL-6 cytokine expression in stimulated whole human blood (ELISA); assay type: cell-based
Experimental: (§1) This example describes the general procedure used to assess the level of cytokine IL-6 and IL-12p40 expressions upon stimuli of whole human blood with small molecules or small molecules in liposomal formulations F1 and F2. 10 mM DMSO solutions of the small molecules were diluted in RPMI media (RPMI-1640, Sigma Aldrich) with 1% penicillin/streptomycin (p/s). […], of each dilution was transferred to Nunc™ 96-Well Polystyrene Conical Bottom MicroWell™ Plates in duplicates. Blood was drawn from two human donors, diluted in RPMI with 1% p/s and added to each well to reach final concentrations of 10 μM, 1 μM, and 0.1 μM of the small molecules. The plates were incubated at 37° C. in a cell incubator for 24h. The plates were then spun down in a plate centrifuge with 3200 revolutions per minute (rpm) for 10 min before 50 uL of the supernatant was transferred to new 96-well plates. The supernatant samples were subsequently stored at −80° C. until the day of cytokine measurements.
(§2) The level of cytokine expression was measured using either an IL-6 ELISA Kit (RnDSystems, cat #DY206) for IL-6, or an IL-12p40 ELISA Kit (RnDSystems, cat #DY1240) according to the manufacturer's protocols. This general procedure was used to generate the examples 24-33.

whole human blood [3] = test: IL-12p40 cytokine expression in stimulated whole human blood (ELISA); assay type: cell-based; settings: drug/lipid ratio 0.1
Experimental: as §1, §2

RAW-Blue cells = test: NF-κB induction in RAW-Blue reporter cells (RAW 264.7 macrophages, SEAP); assay type: cell-based; settings: RAW-Blue; sigmoidal 4PL fitting, 24 h
Outline: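 RAW 264.7 macrophages with NF-κB-inducible SEAP, 100×10^3 cells/well, exposed to compound dilutions (from DMSO stocks in PBS) for 24 h at 37 °C, triplicate. Supernatant SEAP read with QUANTI-Blue at 640 nm after 3–6 h, normalized to DMSO blank; EC50 from 4PL fits.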

B16-F10 tumor [4] = test: B16-F10 tumor model with adoptive cell transfer of PMEL cells (Example 80); assay type: in vivo, mouse; settings: for Weight of tumor bearing mice: versus HBSS, PMEL alone and PMEL loaded with Gdq liposomes
Experimental: Spleens and lymphnodes were harvested from PMEL mice (B6. Cg-Thy1^a/Cy Tg(TcraTcrb)8Rest/J, Jackson Labs) and CD8 T cells purified by Mylteni MACS T cell separation kit. PMEL cells were stimulated and expanded on anti-CD3/CD28 coated plates with mouse IL2/IL7/IL21 cytokines, harvested and loaded with liposomes for evaluation in vivo. PMEL cells at 50×10^6/mL were incubated with liposomes at 10 mM lipid concentration for 60 minutes at 37 C, washed twice and formulated in HBSS prior to injection into the mice. In vivo study details show below. Briefly, 100 ul of 0.5×10^6 B16-F10 cells formulated in HBSS were injected SubQ (SQ) or intra-dermal (ID) and grown for 9 days prior to treatment. 1 day prior to treatment, 4 mg/mouse of cyclophosphamide (CPX) was injected intraperitoneal (IP) with 200 ul at 20 mg/mL in phosphate buffered saline (PBS). There were 10 mice used per group and all treatments were injected intravenous (IV) via tail vein injection, the groups were as follows: • HBSS alone (single dose) • 20×10^6 PMEL cells/mouse (single dose) • 20×10^6 PMEL cells/mouse backpacked with 2.5 antiCD45 Ab/liposome, 10% DOTAP, 35% cholersterol, 0.6% DSPE-PEG, POPC, pH gradient loaded as previously described with Gardiquimod (˜200 nmol Gardiquimod/mouse, single dose) • 20×10^6 PMEL cells/mouse followed by 4 mg/kg Gardiquimod systemically on day 0 (treatment day, day 6, day 13, day 25 • 20×10^6 PMEL cells/mouse followed by 2 mg/kg KRJ2-110 systemically on day 0 (treatment day), day 6, day 13, day 25

[5] = Cytokine/chemokine release kinetics in blood of non-tumor bearing B6D2F1/J mice (Luminex); assay type: in vivo, mouse; settings: single dose; 4 mg/kg Gdq or 2 mg/kg KRJ2-110 systemic, or loaded PMEL cells; 0-24 hr
Experimental: Spleens and lymphnodes were harvested from PMEL mice (B6. Cg-Thy1^a/Cy Tg(TcraTcrb)8Rest/J, Jackson Labs) and CD8 T cells purified by Mylteni MACS T cell separation kit. PMEL cells were stimulated and expanded on anti-CD3/CD28 coated plates with mouse IL2/IL7/IL21 cytokines and harvested for use. The cytokine/chemokine release profile in non-tumor bearing B6D2F1/J mice (Jackson Labs) was evaluated by injecting: • 20×10^6 PMEL cells alone, 20×10^6 PMEL cells loaded with 2.5 ant-CD45 Ab/liposome, 10% DOTAP, 35% cholesterol, 0.6% DSPE-PEG, POPC liposomes Gardiquimod pH gradient loaded as previously described (˜200 nmol gardiquimod, single dose) • 4 mg/kg Gdq systemic (no PMEL, single dose) • 2 mg/kg KRJ2-110 systemic (no PMEL, single dose)
Blood was drawn at 0, 0.25, 0.5, 1, 2, 4, 6, 10 and 24 hr and plasma was recovered for cytokine/chemokine quantitation using a Luminex kit. […] IP10 and TNFa are commonly used biomarkers for TLR7 agonists in human studies indicating these may be useful biomarkers in clinical studies for T cells loaded with TLR7 agonists.

[6] = Cryo-TEM of remote loaded liposomes (intraliposomal precipitation); assay type: physicochemical; settings: remote loaded liposomes, Example 75
Experimental: CryoTEM samples of 3 μL of liposome solution was placed on a lacy carbon 300 mesh copper TEM grid, blotted and plunge frozen in liquid ethane using a FEI Vitrobot Mark IV. Samples were imaged using a FEI Tecnai G2 20 TWIN transmission electron microscope operated at 200 keV in low dose mode with a FEI High-Sensitive (HS) 4 k×4 k Eagle camera.

RAW Blue cells = test: Potency of TLR7 agonist compound library in RAW Blue TLR reporter cells; assay type: cell-based; settings: fold more potent
Experimental: A general synthesis scheme is shown in FIG. 1A according to the procedure by Wu et al. Immunotherapeutic activity of a conjugate of a Toll-like receptor 7 ligand. Proc. Natl. Acad. Sci. 104, 3990-3995 (2007), with some modifications and in good yields. Final derivatization using standard amide bond formation or reductive amination conditions, gave the desired library of 22 compounds divided into two sets (set 1, 1a-1j and set 2, 2a-2j). Next it was evaluated if the synthesized compounds had retained their activity upon derivatization. As benchmarks, the known TLR agonists Gardiquimod (Gdq, TLR7) and Resiquimod (R848, TLR7/8) were used.

B16-F10 tumor [7] = test: In vivo immune profiling by flow cytometry in B16-F10 tumor bearing mice (Example 87); set-up: species or system mouse
Experimental: Spleens and lymphnodes were harvested from PMEL mice (B6. Cg-Thy1^a/Cy Tg(TcraTcrb)8Rest/J, Jackson Labs) and CD8 T cells purified by Mylteni MACS T cell separation kit. PMEL cells were stimulated and expanded on anti-CD3/CD28 coated plates with mouse IL2/IL7/IL21 cytokines, harvested and loaded with liposomes for evaluation in vivo. PMEL cells at 50×10^6/mL were incubated with liposomes at 10 mM lipid concentration for 60 minutes at 37 C, washed twice and formulated in HBSS prior to injection into the mice. Briefly, 100 ul of 1×10^6 B16-F10 cells formulated in HBSS were injected SubQ (SQ) and grown for 10 days prior to treatment. 1 day prior to treatment, 4 mg/mouse of cyclophosphamide (CPX) was injected intraperitoneal (IP) with 200 ul at 20 mg/mL in phosphate buffered saline (PBS). There were 10 mice used per group and all treatments were injected intravenous (IV) via tail vein injection, the groups were as follows: • HBSS alone (single dose) • 20×10^6 PMEL cells/mouse (single dose) • 20×10^6 PMEL cells/mouse backpacked with 1.5% Arg3-Chol, 10% DSTAP, 35% cholesterol, 0.5% DSPE-PEG, DSPC, pH gradient loaded as previously described with KRJ2-110 (single dose) • 20×10^6 PMEL cells/mouse followed by 2 mg/kg KRJ2-110 systemically on day 0 (small molecule delivered 1 hr after cell dose)
Blood was sampled at 24 hr, 4 days and 7 days for plasma isolation and cytokine/chemokine characterization by Luminex. Tissues and organs were harvested on day 4 and 7 for analysis by flow cytometry and Luminex.

[8] = amine in conjugation with the aromatic system; cited from earlier work

For `CCNCc1nc2c(N)nc3ccccc3c2n1CC(C)(C)O` [Gardiquimod, reference compound], the “Remote loading efficiency 1 h (%)” value ([1]; formulation F1, HEPES) was 89%, the “Remote loading efficiency 3 h (%)” value ([1]; formulation F1, HEPES) was 92% and the “Remote loading efficiency 1 h (%)” value ([1]; formulation F2, HEPES) was 89%. The “Remote loading efficiency 3 h (%)” value ([1]; formulation F2, HEPES) was 92%, the “Expression of IL-6 upon stimulation of whole human blood” value (whole human blood [2]; free small molecule, 10, 1, 0.1 μM, 24 h, two donors) was “induced expression of IL-6 at 10 μM in donor 2” and the “Expression of IL-6 upon stimulation of whole human blood” value (whole human blood [2]; remote loaded in formulation F1, HEPES, drug/lipid ratio 0.1) was “No induction of IL-6 expression”. For the same molecule, the “Expression of IL-6 upon stimulation of whole human blood” value (whole human blood [2]; remote loaded in formulation F2, HEPES, drug/lipid ratio 0.1) was “capable of inducing expression of IL-6 at 10 μM; also recorded: capable of inducing expression of IL-6 in both donors; also recorded: the most potent”, the “Expression of IL-12p40 upon stimulation of whole human blood” value (whole human blood [3]; remote loaded in formulation F1, HEPES) was “none of the small molecules Gardiquimod, MK087, MK088, and MK089 were capable of inducing expression of IL-12p40” and the “Expression of IL-12p40 upon stimulation of whole human blood” value (whole human blood [3]; remote loaded in formulation F2, HEPES) was “capable of inducing expression of IL-12p40 in one donor at 10 μM”. For the same molecule, the EC50 (RAW-Blue cells) was 1670 nM, the “Weight of tumor bearing mice” value (B16-F10 tumor [4]) was “more substantial weight loss” and the “Proinflammatory cytokines such as IFNg, IL12 in blood” value [5] was “significant increase in proinflammatory cytokines”.
With `COCCOc1nc(N)c2nc(O)n(Cc3ccc(CN)cc3)c2n1` [KRJ2-110, 6-amino-9-(4-(aminomethyl)benzyl)-2-(2-methoxyethoxy)-9H-purin-8-ol] the “Crystallization within liposomes (Cryo-TEM)” value [6] was “crystallizes inside the liposomes”, the “In vitro potency in a RAW cell assay relative to Gardiquimod” value (RAW Blue cells) was roughly 10 × and the “B16-F10 tumor growth after adoptive cell transfer” value (B16-F10 tumor [4]; PMEL cells plus 2 mg/kg KRJ2-110 or 4 mg/kg Gardiquimod systemically, or liposome loaded PMEL) was “more efficacious”. For the same molecule, the “Weight of tumor bearing mice” value (B16-F10 tumor [4]) was “more substantial weight loss”, the “Proinflammatory cytokines such as IFNg, IL12 in blood” value [5] was “significant increase in proinflammatory cytokines” and the “Activation of PMEL T cells in LN” value (B16-F10 tumor [7]; 4 and 7 days after ACT) was “Increases activation of PMEL T cells in LN”. For the same molecule, the “Exhaustion of PMEL cells (PD1+/LAG3+)” value (B16-F10 tumor [7]; 4 and 7 days after ACT) was “Slightly increases exhaustion”, the “MHCII expression in the tumor” value (B16-F10 tumor [7]; 4 and 7 days after ACT) was “Increases MHCII expression in the tumor” and the “Monocytic and Granulocytic MDSC density in the tumor” value (B16-F10 tumor [7]; 7 days after ACT) was “Does not markedly affect MDSC”. The “Abundance of cDC1 and pDC in the tumor” value (B16-F10 tumor [7]; after ACT) was “Transiently increases the abundance of cDC1 and pDC” and the “Proliferation of PMEL T cells (Ki67)” value (B16-F10 tumor [7]; blood, spleen and tumor, 4 days after ACT) was “Virtually no effect on PMEL T cell proliferation”.
In the case of `CCOCc1nc2c(N)nc3ccccc3c2n1CC(C)(C)O` [R848, Resiquimod, reference compound], the EC50 (RAW-Blue cells) is listed as 150 nM and the “pKa of the conjugate acid” value [8] is listed as “approximately 4”.
